# Calls of active or inactive are those of the source. The calls are words filed in the database; no cut-off is given here.
# Experiments:
# Pseudomonas aeruginosa [1] = test: Antibacterial activity against Pseudomonas aeruginosa ATCC 15442 clinical isolates after 18 to 20 hrs in aerobic condition by CLSI-based broth microdilution assay; assay type: functional
# Acinetobacter baumannii [2] = test: Antibacterial activity against Acinetobacter baumannii NR 17786 clinical isolates after 18 to 20 hrs in aerobic condition by CLSI-based broth microdilution assay; assay type: functional
# [3] = test system: Enterobacter cloacae subsp. cloacae; test: Ratio of MBC to MIC for Enterobacter cloacae subsp. cloacae ATCC BAA-1143 clinical isolates; assay type: functional
# Escherichia coli [4] = test: Antibacterial activity against Escherichia coli ATCC 35150 clinical isolates after 18 to 20 hrs in aerobic condition by CLSI-based broth microdilution assay; assay type: functional
# Staphylococcus aureus [5] = test: Antibacterial activity against Methicillin-sensitive Staphylococcus aureus NRS107 clinical isolates after 18 to 20 hrs in aerobic condition by CLSI protocol based broth microdilution assay; assay type: functional
# Streptococcus pneumoniae = test: Ratio of MBC to MIC for cephalosporin-resistant Streptococcus pneumoniae ATCC 51916 clinical isolates; assay type: functional
# Pseudomonas aeruginosa [6] = test: Antibacterial activity against carbapenem-resistant Pseudomonas aeruginosa ATCC 1744 clinical isolates after 18 to 20 hrs in aerobic condition by CLSI-based broth microdilution assay; assay type: functional
# Pseudomonas aeruginosa [7] = test: Ratio of MBC to MIC for Pseudomonas aeruginosa ATCC 25619 clinical isolates; assay type: functional
# Escherichia coli [8] = test: Antibacterial activity against carbapenem-resistant Escherichia coli BAA-2469 clinical isolates after 18 to 20 hrs in aerobic condition by CLSI-based broth microdilution assay; assay type: functional
# Shigella flexneri = test: Ratio of MBC to MIC for Shigella flexneri ATCC 9199 clinical isolates; assay type: functional
# Klebsiella pneumoniae [9] = test: Antibacterial activity against carbapenem-resistant Klebsiella pneumoniae ATCC BAA-2146 clinical isolates after 18 to 20 hrs in aerobic condition by CLSI-based broth microdilution assay; assay type: functional
# Acinetobacter baumannii [10] = test: Ratio of MBC to MIC for Acinetobacter baumannii ATCC BAA 1747 clinical isolates; assay type: functional
# Staphylococcus aureus [11] = test: Antibacterial activity against vancomycin-resistant Staphylococcus aureus isolate 12 after 18 to 20 hrs in aerobic condition by CLSI-based broth microdilution assay; assay type: functional
# Clostridioides difficile = test: Ratio of MBC to MIC for Clostridium difficile ATCC BAA 1870; assay type: functional
# Staphylococcus aureus [12] = test: Antibacterial activity against methicillin-resistant Staphylococcus aureus NRS384-USA300 clinical isolates after 18 to 20 hrs in aerobic condition by CLSI protocol based broth microdilution assay; assay type: functional
# Klebsiella pneumoniae [13] = test: Antibacterial activity against carbapenem-resistant Klebsiella pneumoniae ATCC BAA-1705 clinical isolates after 18 to 20 hrs in aerobic condition by CLSI-based broth microdilution assay; assay type: functional
# Pseudomonas aeruginosa [14] = test: microbe, parasite or virus in culture; conditions: ATCC 25619
# Description: Antibacterial activity against Pseudomonas aeruginosa ATCC 25619 clinical isolates after 18 to 20 hrs in aerobic condition by CLSI-based broth microdilution assay
# Escherichia coli [15] = test: Antibacterial activity against Escherichia coli BW25113 clinical isolates after 18 to 20 hrs in aerobic condition by CLSI-based broth microdilution assay; assay type: functional
# Enterococcus faecalis = test: Ratio of MBC to MIC for vancomycin-resistant Enterococcus faecalis ATCC 51299 clinical isolates; assay type: functional
# Staphylococcus aureus [16] = test: Antibacterial activity against Methicillin-resistant Staphylococcus aureus USA700-NRS386 clinical isolates after 18 to 20 hrs in aerobic condition by CLSI protocol based broth microdilution assay; assay type: functional
# Salmonella enteritidis = test: Antibacterial activity against Salmonella enteritidis ATCC 13076 clinical isolates after 18 to 20 hrs in aerobic condition by CLSI-based broth microdilution assay; assay type: functional, Salmonella enterica subsp. enterica serovar Enteritidis; conditions: Salmonella enterica
# Klebsiella pneumoniae [17] = test: Ratio of MBC to MIC for Klebsiella pneumoniae BAA-1144 clinical isolates; assay type: functional
# Acinetobacter baumannii [18] = test: microbe, parasite or virus in culture; conditions: ATCC BAA 1747
# Description: Antibacterial activity against Acinetobacter baumannii ATCC BAA 1747 after 18 to 20 hrs in aerobic condition by CLSI-based broth microdilution assay
# Staphylococcus aureus [19] = test: Antibacterial activity against Methicillin-resistant Staphylococcus aureus NRS385-USA500 clinical isolates after 18 to 20 hrs in aerobic condition by CLSI protocol based broth microdilution assay; assay type: functional
# Staphylococcus aureus [20] = test: Antibacterial activity against linezolid-resistant/Methicillin-resistant Staphylococcus aureus NRS119 clinical isolates after 18 to 20 hrs in aerobic condition by CLSI protocol based broth microdilution assay; assay type: functional
# Pseudomonas aeruginosa [21] = test: Ratio of MBC to MIC for Pseudomonas aeruginosa ATCC 9027 clinical isolates; assay type: functional
# Pseudomonas aeruginosa [22] = test: Ratio of MBC to MIC for Pseudomonas aeruginosa ATCC 15442 clinical isolates; assay type: functional
# Staphylococcus aureus [23] = test: Bactericidal activity against methicillin-resistant Staphylococcus aureus NRS123-USA400 clinical isolates at 5 times MIC incubated over 24 hrs followed by replating on tryptic soy agar plate and further incubated for 18 to 20 hrs by time kill assay; assay type: functional, organism-based
# Escherichia coli [24] = test: Inhibition of 6His tagged Escherichia coli UPPP expressed in Escherichia coli C41(DE3) cells preincubated for 15 mins followed by FPP substrate addition and measured after 20 mins by malachite green reagent based assay
# [25] = Antibacterial activity against Enterobacter cloacae subsp. cloacae ATCC BAA-1143 clinical isolates after 18 to 20 hrs in aerobic condition by CLSI-based broth microdilution assay; assay type: functional
# Acinetobacter baumannii [26] = test: Ratio of MBC to MIC for Acinetobacter baumannii NR 17786 clinical isolates; assay type: functional
# Escherichia coli [27] = test: Antibacterial activity against carbapenem-resistant Escherichia coli BAA-2452 clinical isolates after 18 to 20 hrs in aerobic condition by CLSI-based broth microdilution assay; assay type: functional
# Acinetobacter baumannii [28] = test: Ratio of MBC to MIC for Acinetobacter baumannii ATCC BAA 1141 clinical isolates; assay type: functional
# Salmonella enterica = test: Antibacterial activity against Salmonella enterica NR-170 clinical isolates after 18 to 20 hrs in aerobic condition by CLSI-based broth microdilution assay; assay type: functional
# Enterococcus faecium = test: Ratio of MBC to MIC for vancomycin-resistant Enterococcus faecium ATCC 700221 clinical isolates; assay type: functional
# Acinetobacter baumannii [29] = test: Ratio of MBC to MIC for Acinetobacter baumannii NR 17785 clinical isolates; assay type: functional
# Acinetobacter baumannii [30] = test: Antibacterial activity against carbapenem-resistant Acinetobacter baumannii ATCC BAA 1605 clinical isolates after 18 to 20 hrs in aerobic condition by CLSI-based broth microdilution assay; assay type: functional
# Escherichia coli [31] = test: Ratio of MBC to MIC for Escherichia coli ATCC 1411 clinical isolates; assay type: functional
# Staphylococcus aureus [32] = test: Ratio of MBC to MIC for Methicillin-sensitive Staphylococcus aureus ATCC 6538 clinical isolates; assay type: functional
# [33] = test system: Staphylococcus epidermidis; test: Ratio of MBC to MIC for Staphylococcus epidermidis NRS101 clinical isolates; assay type: functional
# Klebsiella pneumoniae [34] = test: Ratio of MBC to MIC for Klebsiella pneumoniae BAA-1706 after 18 to 20 hrs in aerobic condition by CLSI-based broth microdilution assay; assay type: functional
# Pseudomonas aeruginosa [35] = test: microbe, parasite or virus in culture; conditions: ATCC 9027
# Description: Antibacterial activity against Pseudomonas aeruginosa ATCC 9027 clinical isolates after 18 to 20 hrs in aerobic condition by CLSI-based broth microdilution assay
# Acinetobacter baumannii [36] = test: Antibacterial activity against Acinetobacter baumannii ATCC BAA 1141 clinical isolates after 18 to 20 hrs in aerobic condition by CLSI-based broth microdilution assay; assay type: functional
# Staphylococcus aureus [37] = test: Antibacterial activity against vancomycin-resistant Staphylococcus aureus isolate 10 after 18 to 20 hrs in aerobic condition by CLSI-based broth microdilution assay; assay type: functional
structure (smiles),measurement,setting,value
C/C(=N\NC(=N)N)c1cnn(-c2ccc(C#CC3CCCCC3)cc2)c1C,MIC,Pseudomonas aeruginosa [1],32 µg/mL
same,MIC,Acinetobacter baumannii [2],8 µg/mL
same,Ratio,[3],> 1
same,MIC,Escherichia coli [4],4 µg/mL
same,MIC,Staphylococcus aureus [5],2 µg/mL
same,Ratio,Streptococcus pneumoniae,<3
same,MIC,Pseudomonas aeruginosa [6],32 µg/mL
same,Ratio,Pseudomonas aeruginosa [7],>=1
same,MIC,Escherichia coli [8],4 µg/mL
same,Ratio,Shigella flexneri,>=1
same,MIC,Klebsiella pneumoniae [9],8 µg/mL
same,Ratio,Acinetobacter baumannii [10],>=1
same,MIC,Staphylococcus aureus [11],2 µg/mL
same,Ratio,Clostridioides difficile,<3
same,MIC,Staphylococcus aureus [12],2 µg/mL
same,MIC,Klebsiella pneumoniae [13],8 µg/mL
same,MIC,Pseudomonas aeruginosa [14],64 µg/mL
same,MIC,Escherichia coli [15],4 µg/mL
same,Ratio,Enterococcus faecalis,<3
same,MIC,Staphylococcus aureus [16],2 µg/mL
same,MIC,Salmonella enteritidis,16 µg/mL
same,Ratio,Klebsiella pneumoniae [17],>=1
same,MIC,Acinetobacter baumannii [18],4 µg/mL
same,MIC,Staphylococcus aureus [19],2 µg/mL
same,MIC,Staphylococcus aureus [20],2 µg/mL
same,Ratio,Pseudomonas aeruginosa [21],>=1
same,Ratio,Pseudomonas aeruginosa [22],>=1
same,Activity,Staphylococcus aureus [23],Active
same,inhibition,Escherichia coli [24],inactive
same,MIC,[25],8 µg/mL
same,Ratio,Acinetobacter baumannii [26],>=1
same,MIC,Escherichia coli [27],8 µg/mL
same,Ratio,Acinetobacter baumannii [28],>=1
same,MIC,Salmonella enterica,8 µg/mL
same,Ratio,Enterococcus faecium,<3
same,Ratio,Acinetobacter baumannii [29],>=1
same,MIC,Acinetobacter baumannii [30],4 µg/mL
same,Ratio,Escherichia coli [31],>=1
same,Ratio,Staphylococcus aureus [32],<=2
same,Ratio,[33],<3
same,Ratio,Klebsiella pneumoniae [34],>=1
same,MIC,Pseudomonas aeruginosa [35],16 µg/mL
same,MIC,Acinetobacter baumannii [36],4 µg/mL
same,MIC,Staphylococcus aureus [37],2 µg/mL
C/C(=N\NC1=NCCN1)c1cnn(-c2ccc(C#CC3CCCC3)cc2)c1C,MIC,Pseudomonas aeruginosa [1],64 µg/mL
same,MIC,Acinetobacter baumannii [2],16 µg/mL
same,Ratio,[3],> 1
same,MIC,Escherichia coli [4],16 µg/mL
same,MIC,Staphylococcus aureus [5],2 µg/mL
same,Ratio,Streptococcus pneumoniae,<3
same,MIC,Pseudomonas aeruginosa [6],32 µg/mL
same,Ratio,Pseudomonas aeruginosa [7],>=1
same,MIC,Escherichia coli [8],32 µg/mL
same,Ratio,Shigella flexneri,>=1
same,MIC,Klebsiella pneumoniae [9],64 µg/mL
same,Ratio,Acinetobacter baumannii [10],>=1
same,MIC,Staphylococcus aureus [11],4 µg/mL
same,Ratio,Clostridioides difficile,<3
same,MIC,Staphylococcus aureus [12],4 µg/mL
same,MIC,Klebsiella pneumoniae [13],64 µg/mL
same,MIC,Pseudomonas aeruginosa [14],64 µg/mL
same,MIC,Escherichia coli [15],64 µg/mL
same,Ratio,Enterococcus faecalis,<3
same,MIC,Staphylococcus aureus [16],4 µg/mL
same,MIC,Salmonella enteritidis,32 µg/mL
same,Ratio,Klebsiella pneumoniae [17],>=1
same,MIC,Acinetobacter baumannii [18],16 µg/mL
same,MIC,Staphylococcus aureus [19],4 µg/mL
same,MIC,Staphylococcus aureus [20],4 µg/mL
same,Ratio,Pseudomonas aeruginosa [21],>=1
same,Ratio,Pseudomonas aeruginosa [22],>=1
same,Activity,Staphylococcus aureus [23],Active
same,inhibition,Escherichia coli [24],inactive
same,MIC,[25],32 µg/mL
same,Ratio,Acinetobacter baumannii [26],>=1
same,MIC,Escherichia coli [27],16 µg/mL
same,Ratio,Acinetobacter baumannii [28],>=1
same,MIC,Salmonella enterica,32 µg/mL
same,Ratio,Enterococcus faecium,<3
same,Ratio,Acinetobacter baumannii [29],>=1
same,MIC,Acinetobacter baumannii [30],16 µg/mL
same,Ratio,Escherichia coli [31],>=1
same,Ratio,Staphylococcus aureus [32],<=2
same,Ratio,[33],<3
same,Ratio,Klebsiella pneumoniae [34],>=1
same,MIC,Pseudomonas aeruginosa [35],32 µg/mL
same,MIC,Acinetobacter baumannii [36],16 µg/mL
same,MIC,Staphylococcus aureus [37],8 µg/mL
CCCC#Cc1ccc(-n2ncc(/C(C)=N/NC(=N)N)c2C)cc1,MIC,Pseudomonas aeruginosa [1],16 µg/mL
same,MIC,Acinetobacter baumannii [2],16 µg/mL
same,Ratio,[3],> 1
same,MIC,Escherichia coli [4],8 µg/mL
same,MIC,Staphylococcus aureus [5],4 µg/mL
same,Ratio,Streptococcus pneumoniae,<3
same,MIC,Pseudomonas aeruginosa [6],32 µg/mL
same,Ratio,Pseudomonas aeruginosa [7],>=1
same,MIC,Escherichia coli [8],32 µg/mL
same,Ratio,Shigella flexneri,>=1
same,MIC,Klebsiella pneumoniae [9],32 µg/mL
same,Ratio,Acinetobacter baumannii [10],>=1
same,MIC,Staphylococcus aureus [11],2 µg/mL
same,Ratio,Clostridioides difficile,<3
same,MIC,Staphylococcus aureus [12],4 µg/mL
same,MIC,Klebsiella pneumoniae [13],16 µg/mL
same,MIC,Pseudomonas aeruginosa [14],16 µg/mL
same,MIC,Escherichia coli [15],8 µg/mL
same,Ratio,Enterococcus faecalis,<3
same,MIC,Staphylococcus aureus [16],4 µg/mL
same,MIC,Salmonella enteritidis,16 µg/mL
same,Ratio,Klebsiella pneumoniae [17],>=1
same,MIC,Acinetobacter baumannii [18],8 µg/mL
same,MIC,Staphylococcus aureus [19],2 µg/mL
same,MIC,Staphylococcus aureus [20],2 µg/mL
same,Ratio,Pseudomonas aeruginosa [21],>=1
same,Ratio,Pseudomonas aeruginosa [22],>=1
same,Activity,Staphylococcus aureus [23],Active
same,inhibition,Escherichia coli [24],inactive
same,MIC,[25],16 µg/mL
same,Ratio,Acinetobacter baumannii [26],>=1
same,MIC,Escherichia coli [27],32 µg/mL
same,Ratio,Acinetobacter baumannii [28],>=1
same,MIC,Salmonella enterica,16 µg/mL
same,Ratio,Enterococcus faecium,<3
same,Ratio,Acinetobacter baumannii [29],>=1
same,MIC,Acinetobacter baumannii [30],16 µg/mL
same,Ratio,Escherichia coli [31],>=1
same,Ratio,Staphylococcus aureus [32],<=2
same,Ratio,[33],<3
same,Ratio,Klebsiella pneumoniae [34],>=1
same,MIC,Pseudomonas aeruginosa [35],32 µg/mL
same,MIC,Acinetobacter baumannii [36],8 µg/mL
same,MIC,Staphylococcus aureus [37],2 µg/mL
